Target: T1, TAS2R46 (Homo sapiens, UniProt P59540)
T1 construct: The full length gene of human TAS2R44 was amplified by polymerase chain reaction (PCR) using gene-specific primers that span the entire coding region; RSS tag (first 45 amino acids of rat somatostatin receptor subtype 3) (N); expressed in transfected cells; host or cells: HEK293T/Gα16-gustducin 44 cells, transient transfection
T1 sequence (P59540 1-309): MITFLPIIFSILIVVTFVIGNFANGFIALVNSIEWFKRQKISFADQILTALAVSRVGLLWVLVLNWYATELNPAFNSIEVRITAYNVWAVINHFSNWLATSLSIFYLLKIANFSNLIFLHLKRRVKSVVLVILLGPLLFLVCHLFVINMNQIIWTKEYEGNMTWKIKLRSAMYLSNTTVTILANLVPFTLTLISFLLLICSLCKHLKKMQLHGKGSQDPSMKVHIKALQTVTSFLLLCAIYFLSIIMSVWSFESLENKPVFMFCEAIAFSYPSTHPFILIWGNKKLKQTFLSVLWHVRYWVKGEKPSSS
Test: Fluo-4 calcium assay, HEK293T/Gα16-gustducin44 cells transiently expressing TAS2R46
Format: cell-based
Protocol: On day 0, the HEK293T/Gα16-gustducin 44 cells are plated in 96-well black wall, clear-bottom plates at a density of 14,000 cells per well and grown overnight in growth media (DMEM with 10% (v/v) heat-inactivated fetal bovine serum, 2 mM L-glutamine, 100 units/ml penicillin, 100 μg/ml streptomycin).
On day 1, the media is changed to an antibiotic-free and serum-free DMEM.
The cells are transfected with Lipofectamine 2000 (Invitorgen) according to the manufacturers recommendations.
Per well of a 96-well plate, 150 ng of vector DNA (SABTR expression vectors or TAS2R16 expression vector from example 1) is diluted in 12.5 μl of DMEM. In a second tube, 0.3 μl of Lipofectamine 2000 is diluted in 12.5 μl of DMEM and incubated for 5 min at room temperature. After the 5 min, both solutions are mixed and incubated for 20 min at RT. The growth medium in the plate is exchanged by 50 μl of DMEM and 25 μl of the lipofectamine/DNA mixture is incubated on the cells for 3-4 hours at 37° in a humidified atmosphere. This mixture is then replaced with an antibiotic-free, serum-containing DMEM.
24 hours post transfection, the cells are used in the Fluo-4 Calcium Assay described in Example 3.
At day 0, the HEK293T cell line expressing Gα16-gustducin44 and a TAS2R bitter taste receptor formed as described in examples 2b or 2c was seeded in antibiotic-free growth medium (standard DMEM with 10% (v/v) heat-inactivated fetal bovine serum, 2 mM L-glutamine[…]) into black wall/clear bottom 96-well plates, coated with poly(ethylenimine) (0.005% v/v) at a concentration of 15,000 cells per well and incubated for 48 hours in humidified atmosphere (37° C., 5% CO2).
At the time of the assay, the growth medium was discarded and the cells were in humidified atmosphere (37° C., 5% CO2) for 1 hour with 50 μl of loading buffer consisting of 1.5 μM Fluo-4 AM and […] probenicid (Sigma-Aldrich, St. Louis, Mo., US) in DMEM.
Afterwards, the 96-well plate was washed 5 times with 100 μl of assay buffer (130 mM NaCl, 5 mM KCl, 10 mM HEPES, 2 mM CaCl2, and 5 mM dextrose, pH 7.4) per well, using an automated plate washer (BioTek). The plate was further incubated for 30 minutes at room temperature in the dark to allow for complete de-esterification of the Fluo-4. Afterwards the plate was washed 5 times with 100 μl of assay buffer per well, and reconstituted with 100 μl of assay buffer per well.
For assay reading, the plate was placed in a Fluorometric Imaging Plate Reader (FLIPR) (FLIPR-TETRA™, Molecular Devices, Sunnyvale, Calif., US), and receptor activation was initiated by addition of 100 μl of a twofold concentrated agonist stock solution (to give the desired agonist end concentration when added to the 100 microliter assay buffer volume), which was prepared in assay buffer.
Fluorescence was continuously monitored for 20 seconds to give a signal baseline (averaged to give F0) prior to agonist addition and for 120 seconds after agonist addition. The change in signal divided by F0 gives ΔF/F0 indicated in the table, with ΔF being the maximum signal occurring within the 120 seconds minus the minimum signal (occurring within the 120 seconds after agonist addition.
All data was collected from at least two independent experiments each carried out in triplicate.
The obtained calcium signals were corrected for the response of cells expressing only the G Protein α subunit (Gα16-gustducin44) and normalized to the fluorescence of cells prior to the stimulus using ΔF/F0 (Fmax−Fmin/F0).
The intracellular calcium response following addition of sucralose was determined in HK293T cell line stably expressing Gα16-gustducin44 and transiently expressing TAS2R46 formed as described in example 2b.

- TAS2R46 ΔF/F0 (sucralose 0.3906 mM): 0.041
- TAS2R46 ΔF/F0 (sucralose 0.7813 mM): 0.038
- TAS2R46 ΔF/F0 (sucralose 1.5625 mM): 0.035
- TAS2R46 ΔF/F0 (sucralose 3.1250 mM): 0.036
- TAS2R46 ΔF/F0 (sucralose 6.2500 mM): 0.057
- TAS2R46 ΔF/F0 (sucralose 12.5000 mM): 0.075
- TAS2R46 ΔF/F0 (sucralose 25.0000 mM): 0.106
- TAS2R46 ΔF/F0 (sucralose 50.0000 mM): 0.171
- TAS2R46 ΔF/F0 (sucralose 100.0000 mM): 0.258
Structure (SMILES): OC[C@H]1O[C@H](O[C@]2(CCl)O[C@H](CCl)[C@@H](O)[C@@H]2O)[C@H](O)[C@@H](O)[C@H]1Cl [Sucralose, sucralose]
- calcium signaling in TAS2R46 cells, in words: significant concentration-dependent increase in calcium signaling

Reference: patent publication US8187822B2, “Methods to identify modulators” (Givaudan S.A., priority 2007, dated 2012)
